pKi: −log10 of the molar value.

Type in all cases: cell-based
One experiment concerns the target Histamine H3 receptor (Homo sapiens, UniProt Q9Y5N1). The experiment is described as follows: Displacement of N-alpha-[methyl-3H]methylhistamine dihydrochloride from human recombinant histamine H3 receptor expressed in CHO-K1 cells at 1 uM incubated for 30 mins by liquid scintillation counting analysis.
In the next experiment the target is D(2) dopamine receptor (Homo sapiens, UniProt P14416). The experiment is described as follows: Displacement of [3H]raclopride from human recombinant dopamine D2 long receptor expressed in CHO-K1 cells at 1 uM incubated for 120 mins by scintillation counting analysis.
Chain of D(2) dopamine receptor (P14416 whole entry): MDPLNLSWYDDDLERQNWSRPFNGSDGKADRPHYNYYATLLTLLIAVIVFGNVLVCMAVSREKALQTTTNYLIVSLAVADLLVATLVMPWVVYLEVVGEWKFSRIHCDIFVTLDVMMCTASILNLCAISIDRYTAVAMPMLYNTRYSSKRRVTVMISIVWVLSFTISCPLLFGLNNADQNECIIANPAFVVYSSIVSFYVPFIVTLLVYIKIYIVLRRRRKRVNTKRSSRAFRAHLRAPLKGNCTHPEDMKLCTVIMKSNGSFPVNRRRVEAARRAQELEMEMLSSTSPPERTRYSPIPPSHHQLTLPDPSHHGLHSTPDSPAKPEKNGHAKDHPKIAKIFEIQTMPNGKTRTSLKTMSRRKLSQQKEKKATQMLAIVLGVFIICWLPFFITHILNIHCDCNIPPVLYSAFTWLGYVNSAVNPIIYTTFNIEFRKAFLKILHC
Experiment [1] deals with T1, D(3) dopamine receptor (Homo sapiens, UniProt P35462). The experiment is described as follows: Displacement of [3H]raclopride from human recombinant dopamine D3 receptor expressed in CHO-K1 cells incubated for 120 mins by liquid scintillation counting analysis.
T1 sequence (P35462 whole entry): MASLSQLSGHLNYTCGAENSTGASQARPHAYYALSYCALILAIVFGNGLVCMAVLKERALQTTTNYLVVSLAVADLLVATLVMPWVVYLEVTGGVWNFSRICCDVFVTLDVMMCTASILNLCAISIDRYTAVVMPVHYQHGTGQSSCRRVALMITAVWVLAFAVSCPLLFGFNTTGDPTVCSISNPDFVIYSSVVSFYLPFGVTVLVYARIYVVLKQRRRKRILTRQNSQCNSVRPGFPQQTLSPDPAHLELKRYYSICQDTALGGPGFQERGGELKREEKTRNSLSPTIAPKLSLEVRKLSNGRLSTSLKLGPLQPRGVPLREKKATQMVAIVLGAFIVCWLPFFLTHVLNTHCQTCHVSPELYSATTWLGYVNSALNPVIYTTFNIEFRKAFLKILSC
The target of experiment [2] is T2, 5-hydroxytryptamine receptor 6 (Homo sapiens, UniProt P50406). The experiment is described as follows: Displacement of [3H]LSD from human recombinant 5-HT6 receptor expressed in CHO-K1 cells at 1 uM incubated for 3 hrs by scintillation counting analysis.
T2 sequence (P50406 whole entry): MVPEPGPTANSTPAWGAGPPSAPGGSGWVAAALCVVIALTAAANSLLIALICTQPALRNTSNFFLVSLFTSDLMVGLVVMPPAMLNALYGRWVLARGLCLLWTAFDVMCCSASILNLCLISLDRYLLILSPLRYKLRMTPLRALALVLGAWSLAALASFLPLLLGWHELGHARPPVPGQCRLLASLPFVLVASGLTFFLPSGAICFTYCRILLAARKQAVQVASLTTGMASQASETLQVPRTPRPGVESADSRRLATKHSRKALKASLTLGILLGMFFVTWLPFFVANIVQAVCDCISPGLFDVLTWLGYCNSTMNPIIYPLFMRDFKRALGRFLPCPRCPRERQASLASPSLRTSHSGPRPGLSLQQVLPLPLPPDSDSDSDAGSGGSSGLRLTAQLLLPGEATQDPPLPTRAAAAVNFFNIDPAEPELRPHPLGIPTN
The target of experiment [3] is T1, D(3) dopamine receptor. The experiment is described as follows: Displacement of [3H]raclopride from human recombinant dopamine D3 receptor expressed in CHO-K1 cells at 1 uM incubated for 120 mins by liquid scintillation counting analysis.
Experiment [4] addresses T2, 5-hydroxytryptamine receptor 6. Nature of the experiment: Displacement of [3H]LSD from human recombinant 5-HT6 receptor expressed in CHO-K1 cells incubated for 3 hrs by scintillation counting analysis.

Chain of Histamine H3 receptor (Q9Y5N1 whole entry): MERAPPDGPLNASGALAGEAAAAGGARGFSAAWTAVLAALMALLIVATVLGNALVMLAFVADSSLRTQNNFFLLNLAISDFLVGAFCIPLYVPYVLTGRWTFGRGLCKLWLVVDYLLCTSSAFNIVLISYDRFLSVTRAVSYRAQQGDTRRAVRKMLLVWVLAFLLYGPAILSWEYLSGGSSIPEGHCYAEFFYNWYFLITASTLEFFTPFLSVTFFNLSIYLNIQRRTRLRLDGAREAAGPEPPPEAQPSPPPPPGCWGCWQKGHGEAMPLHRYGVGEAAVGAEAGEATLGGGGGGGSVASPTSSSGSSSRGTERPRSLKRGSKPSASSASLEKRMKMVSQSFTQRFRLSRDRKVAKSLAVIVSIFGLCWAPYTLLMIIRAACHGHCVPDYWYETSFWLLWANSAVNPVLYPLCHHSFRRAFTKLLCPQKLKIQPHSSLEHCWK

Regarding `CCCN1CCC(c2ccc3c(c2)CCN3S(=O)(=O)c2ccccc2)CC1`, the inhibition on Histamine H3 receptor was 22%; at D(2) dopamine receptor it was 35%; in experiment [2], 39%; at D(3) dopamine receptor [3], 79%. In addition, at D(3) dopamine receptor [1], the pKi is 6.64.
Turning to `O=S(=O)(c1ccccc1)N1CCc2cc(N3CCNCC3)ccc21`, the inhibition on Histamine H3 receptor was 4%; on D(2) dopamine receptor, 18%; in experiment [2], 90%; on D(3) dopamine receptor [3] it was 75%. The pKi at D(3) dopamine receptor [1] is 6.88; in experiment [4], 7.70.
In the case of `CCCN1CCC(c2ccc3c(c2)CN(S(=O)(=O)c2ccccc2)C3)CC1`, the inhibition on Histamine H3 receptor was found to be 27%; on D(2) dopamine receptor it was 16%; in experiment [2], 26%; at D(3) dopamine receptor [3], 48%. The pKi on D(3) dopamine receptor [1] is 6.15.
For the compound `O=S(=O)(c1ccccc1)N1Cc2ccc(C3CCNCC3)cc2C1`, the inhibition at Histamine H3 receptor was determined as 3%; on D(2) dopamine receptor, 9%; in experiment [2], 54%; at D(3) dopamine receptor [3] it was 3%. Further, in experiment [4], the pKi was 6.60.
Regarding `CCCN1CCN(c2ccc3c(c2)CN(S(=O)(=O)c2ccccc2)C3)CC1`, the inhibition was 38% at Histamine H3 receptor, 29% at D(2) dopamine receptor and 85% on D(3) dopamine receptor [3]. Besides, at D(3) dopamine receptor [1], the pKi was 6.99.
For `O=S(=O)(c1ccccc1)N1CCc2cc(C3CCN(C4CCC4)CC3)ccc21`, the inhibition at Histamine H3 receptor is 11%; on D(2) dopamine receptor, 22%; in experiment [2], -9%; at D(3) dopamine receptor [3], 48%. In addition, at D(3) dopamine receptor [1], the pKi is 5.78.
On to `O=S(=O)(c1ccccc1)N1CCc2c(C3CCNCC3)cccc21`, for which the inhibition at Histamine H3 receptor is -5%; on D(2) dopamine receptor, 10%; in experiment [2] it was 83%; on D(3) dopamine receptor [3] it was 6%. Further, in experiment [4], the pKi was 7.89.
Consider `O=S(=O)(c1ccccc1)N1Cc2ccc(C3CCN(C4CCC4)CC3)cc2C1`, for which the inhibition on Histamine H3 receptor was 28%; on D(2) dopamine receptor it was 25%; in experiment [2], -10%; at D(3) dopamine receptor [3], 24%.
`CN1CCC(c2cccc3c2CCN3S(=O)(=O)c2ccccc2)CC1`: the inhibition at Histamine H3 receptor was found to be 10%; on D(2) dopamine receptor it was 35%; in experiment [2], 87%; at D(3) dopamine receptor [3], 13%. The pKi in experiment [4] is 7.35.
For `O=S(=O)(c1ccccc1)N1CCc2c(N3CCNCC3)cccc21` the same measures were 3%, 22%, 97%, 40% and 6.93.
Regarding `CN1CCC(c2ccc3c(c2)CN(S(=O)(=O)c2ccccc2)C3)CC1`, the inhibition at Histamine H3 receptor is 41%; on D(2) dopamine receptor it was 19%; in experiment [2] it was 56%; at D(3) dopamine receptor [3], 34%. The pKi in experiment [4] was 6.25.
As for `O=S(=O)(c1ccccc1)N1CCc2cc(N3CCN(C4CCC4)CC3)ccc21`, the inhibition on Histamine H3 receptor amounted to 36%; on D(2) dopamine receptor, 24%; in experiment [2], 28%; at D(3) dopamine receptor [3], 68%. For the same compound, the pKi on D(3) dopamine receptor [1] is 6.68.
As for `O=S(=O)(c1ccccc1)N1CCc2cc(C3CCNCC3)ccc21`, the inhibition on Histamine H3 receptor came out at 2%; on D(2) dopamine receptor, 13%; in experiment [2], 74%; on D(3) dopamine receptor [3], 20%. The pKi in experiment [4] was 6.76.
For `CN1CCN(c2ccc3c(c2)CN(S(=O)(=O)c2ccccc2)C3)CC1`, the inhibition on Histamine H3 receptor stood at 21%; at D(2) dopamine receptor it was 11%; in experiment [2], 29%; on D(3) dopamine receptor [3], 41%.
In the case of `O=S(=O)(c1ccccc1)N1Cc2ccc(N3CCNCC3)cc2C1`, the inhibition was determined as 7% on Histamine H3 receptor, 14% at D(2) dopamine receptor, 46% in experiment [2] and 37% at D(3) dopamine receptor [3]. Also, in experiment [4], the pKi was 6.54.
